Data set [1] concerns PANK2 silenced human neuroblastoma IMR32 cells (PANK2−/−). Briefly: Coenzyme A assay in PANK2 silenced cells (LC-MS quantification of free CoA). The note with it: compound added twice (24 h + 24 h), relative to 0.1% DMSO controls. Type of data set: cell-based. The gist of the method:
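Free intracellular CoA was measured by positive-mode LC-MS/MS of 20% TFA extracts, taking 2 μl per 10^6 cells as intracellular volume. Cells were IMR32 with stable lentiviral PANK2 knockdown, dosed twice 24 h apart (48 h total, 0.1% DMSO). Output is fold increase over vehicle.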

A short description of data set [2]: Stability in mouse plasma. Format: in vitro ADME. The note with it: mouse, plasma; for t1/2, Mouse Plasma, Diastereoisomer B: 3 µM. The essentials:
(§1)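 Test compound at 3 μM (0.1% DMSO) was incubated in mouse or human plasma at 37 °C and sampled in duplicate at 0, 10, 20, 30, 40 and 60 min. Reactions were stopped with acetonitrile/formic acid containing internal standard. Remaining parent was measured by UPLC-MS/MS without a calibration curve.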

Data set [3] can be described thus: Stability in human plasma. Format: in vitro ADME. The note with it: human, plasma, 37° C. The essentials:
as §1

Data set [4] is described as follows: Stability in mouse hepatocytes. Format: in vitro ADME. The note with it: t1/2, Mouse Hepatocytes. Here is the method: (§2) Stability in hepatocytes for select compounds disclosed in the application was evaluated in two species (mouse and human) according to the following procedure. Compounds and positive control samples were dissolved in 100% DMSO at 5 mM. Cryopreserved hepatocytes were thawed and resuspended in Hepatocyte Basal Medium (HBM-Lonza CC-3199) supplemented with CC-4182 (complete hepatocyte culture medium). Test compounds were diluted into cell suspension (1 million cells/ml) from the stock solutions to have a test compound concentration of 5 μM (0.1% DMSO). Incubation was performed in 24-well plates, at 37° C. in a DUBNOFF water bath, under low shaking. Each compound was tested at 6 time points, in duplicates (0, 15, 30, 60, 120 and 240 min). At each time point, an aliquot of 120 μl was taken and transferred to a 96-well deep plate. The reaction was stopped with the addition of one volume of 100% acetonitrile plus 0.1% formic acid and the appropriate internal standard. Then samples were centrifuged at 1100×g for 30 min at +4° C. and supernatants were transferred to a new 96-deepwell plate. Samples were evaporated under N2 and reconstituted in H2O/ACN 0.1% Formic Acid (98:2). Analysis was performed without a calibration curve (Acquity UPLC-Waters; Sciex API4000). Time 0 was obtained adding acetonitrile before addition of the test compound. […] The half-life (t1/2) expressed in hours is derived using Equation 1 as shown in Example 64.

The nature of data set [5]: Stability in human hepatocytes. The note with it: t1/2, Human Hepatocytes. Format: in vitro ADME. Here is the method:
as §2

The mark [6] stands for this setting: Diastereoisomer A (upfield shift in 31P NMR), read-out: t1/2, Human Plasma, Diastereoisomer A (converted).
Where [7] appears, read: Diastereoisomer B, read-out: t1/2, Human Plasma, Diastereoisomer B (converted).

Regarding `COC(=O)CCNC(=O)[C@@H]1OP(=O)(N[C@H](C(=O)OCc2ccccc2)C(C)C)OCC1(C)C` (stereo partly drawn) [compound 13, benzyl ((4R)-4-((3-methoxy-3-oxopropyl)carbamoyl)-5,5-dimethyl-2-oxido-1,3,2-dioxaphosphinan-2-yl)-L-valinate], in data set [1], the “PANK2−/− CoA (Fold Increase): fold increase in Coenzyme A (CoA) levels relative to controls” value is recorded as 1 Fold Increase. For the same compound, the half-life at 3 µM is < 9.6 min in data set [2], > 60 min in data set [3] (setting [6]) and > 60 min in data set [3] (setting [7]). The “t1/2, Mouse Plasma, Diastereoisomer B” value in data set [2] is <9.6 min. In addition, the half-life at 5 µM in data set [4] (Diastereoisomer A) was 28.2 min; in data set [4] (Diastereoisomer B), 24 min; in data set [5] (Diastereoisomer A) it was 31.8 min; in data set [5] (Diastereoisomer B) it was < 15 min.

In the case of `CCC(CC)C(=O)OCOP1(=O)OCC(C)(C)[C@H](C(=O)NCCC(=O)OC)O1` (stereo partly drawn) [Compound No. 67, (((4R)-4-((3-methoxy-3-oxopropyl)carbamoyl)-5,5-dimethyl-2-oxido-1,3,2-dioxaphosphinan-2-yl)oxy)methyl 2-ethylbutanoate], the “PANK2−/− CoA (Fold Increase): fold increase in Coenzyme A (CoA) levels relative to controls” value in data set [1] was determined as 122.4 Fold Increase. For the same compound, the half-life at 3 µM in data set [2] was < 9.6 min; in data set [3] (setting [6]) it was > 60 min; in data set [3] (setting [7]), < 9.6 min. In addition, the “t1/2, Mouse Plasma, Diastereoisomer B” value in data set [2] is <9.6 min. For the same compound, the half-life at 5 µM in data set [4] (Diastereoisomer A), in data set [4] (Diastereoisomer B), in data set [5] (Diastereoisomer A) and in data set [5] (Diastereoisomer B) was < 15 min in each case.

Take `COC(=O)CCNC(=O)[C@@H]1OP(=O)(N[C@H](C)C(=O)OCCc2ccccc2)OCC1(C)C` (stereo partly drawn) [compound 26, methyl 3-((4R)-5,5-dimethyl-2-oxido-2-(((R)-1-oxo-1-phenethoxypropan-2-yl)amino)-1,3,2-dioxaphosphinane-4-carboxamido)propanoate]: the “PANK2−/− CoA (Fold Increase): fold increase in Coenzyme A (CoA) levels relative to controls” value in data set [1] is reported as 2.29 Fold Increase. The values for the half-life at 3 µM in data set [2], in data set [3] (setting [6]) and in data set [3] (setting [7]) were < 9.6 min, > 60 min and > 60 min, respectively. The “t1/2, Mouse Plasma, Diastereoisomer B” value in data set [2] is <9.6 min. For the same compound, the half-life at 5 µM in data set [4] (Diastereoisomer A) is < 15 min; in data set [4] (Diastereoisomer B) it was < 15 min; in data set [5] (Diastereoisomer A), 18.6 min; in data set [5] (Diastereoisomer B), < 15 min.

Take `COC(=O)CCNC(=O)[C@@H]1O[P@](=O)(OCOC(=O)C(C)(C)C)OCC1(C)C` (single isomer, unassigned) [Compound No. 89]: the “PANK2−/− CoA (Fold Increase): fold increase in Coenzyme A (CoA) levels relative to controls” value in data set [1] was determined as 154.1 Fold Increase. Moreover, the half-life at 3 µM in data set [2] and in data set [3] (setting [6]) was < 9.6 min throughout. The half-life at 5 µM in data set [4] (Diastereoisomer A) and in data set [5] (Diastereoisomer A) was < 15 min each time.

(Values after patent US10364263B2, “Cyclic phosphates and cyclic phosphoramidates for the treatment of neurologic disorders” (Retrophin, Inc., priority 2015, dated 2019).)
